Source: patent publication EP0619297B1, “Fungicides for the control of take-all desease of plants” (MONSANTO COMPANY, priority 1993, dated 1994)
In brackets after ≈: the same amount, converted by molar mass. Where two headings read alike, the source gives them in different places.

Experiments:
[1] = tested on: Gaeumannomyces graminis var. tritici (Ggt); experiment: In vitro assay: mycelial growth on minimal media agar plates (Percent Inhibition; IC50); assay type: cell-based; conditions: for inhibition at 0.1 ppm: read-out: In vitro(ppm) 0.1, Percent Inhibition; for inhibition at 1 ppm: read-out: In vitro(ppm) 1, Percent Inhibition; for inhibition at 10 ppm: read-out: In vitro(ppm) 10, Percent Inhibition; for IC50: interpolated from percent inhibition at 1, 0.1, 0.01, 0.001 and 0.0001 ppm
Description: The test compounds (0.25 mL of an appropriate stock solution in acetone) are incorporated into 25 mL minimal media agar [prepared by autoclaving a solution of 17.5 g Czapek Dox broth (Difco), 7.5 g purified agar or Bacto-agar (Difco), and 500 mL distilled/deionized water, and then adding 50 µL of 1 mg/mL thiamine hydrochloride and 50 µL of 1 mg/mL biotin in 5% ethanol] and plates are prepared.
Each plate is inoculated by placing in a triangular shape three 4-mm plugs of Gaeumannomyces graminis var. tritici (Ggt) grown on the minimal media agar described above. The plates are incubated in the dark at 19 - 20 °C for 4 to 5 days. The growth of the fungus is measured as the diameter of the mycelial growth. The result is expressed as Percent Inhibition, calculated as [1 - [(mm growth on treated plate - 4)/(mm growth on control plate - 4)]] x 100.
To determine IC5O values, an in vitro assay was run on each compound at the concentrations of 1, 0.1, 0.01, 0.001, and 0.0001 ppm. The percent inhibition was calculated for each concentration using the equation described in the in vitro assay under the section on Biological Assays. Using the two ordered pairs of (concentration, % inhibition) that bracket 50% inhibition of fungal growth, the concentration for 50% inhibition is calculated from the following equation. IC50 = [(50-I2 )C1 + (I1 -50)C2 ]/(I1 -I2 ), [formula] where C1 = 10C2.

Ggt = experiment: In vivo assay: control of Ggt on wheat in 3-inch pots with infested soil, rated after four weeks;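 on In vivo(ppm) 0.1, percent disease control: rate is mg active ingredient per pot in 3 mL solution not ppm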;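 on In vivo(ppm) 0.5, percent disease control: rate is mg active ingredient per pot in 3 mL solution not ppm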; set-up: species or system Gaeumannomyces graminis var. tritici; conditions: Gaeumannomyces graminis, 672 h; for pest or weed control at 0.02 mg/pot: read-out: In vivo(ppm) 0.02mg/pot, percent disease control; for pest or weed control at 0.1 mg/pot: read-out: In vivo(ppm) 0.1, percent disease control; for pest or weed control at 0.5 mg/pot: read-out: In vivo(ppm) 0.5, percent disease control
Description: Compounds are tested for control of Ggt on 'Bergen' or 'Anza' varieties of wheat grown in 3-inch square pots containing soil infested with Ggt. The infestation is accomplished by mixing the soil with an inoculum prepared by growing Ggt on 1/4 strength potato dextrose agar (4.875 g potato dextrose agar, 5.0 g Bacto agar, 500 mL distilled, deionized water) in plates and using plugs from the plates to infest sterile oats (400 cc whole oats, 350 mL deionized water, autoclaved). After a one-month incubation period at room temperature, the oats are dried and mixed with the soil at 4% v/v. Four wheat seeds are placed on top of the soil in each pot. […] Five pots are used for each treatment level and the controls, which are untreated, inoculated and non-inoculated pots. After one hour drying time, the seeds are covered with more of the appropriate soil and a layer of vermiculite. The pots are placed in a growth chamber and watered each day. After four weeks, each pot is evaluated for evidence of disease by examination of the seminal roots of each plant under a dissecting microscope. A 0 to 5 rating scale having the following meanings is used: • 0 = no runner hyphae or lesions present • 1 = runner hyphae and a few small lesions present on <10% of root system • 2 = runner hyphae and small lesions present on 10 - 25% of root system • 3 = runner hyphae and lesions present on 25 - 50% of root system • 4 = runner hyphae and many, large, coalescing lesions on >50% of root system • 5 = root system and culm completely inundated with lesions and runner hyphae
From each set of five replicates a high or low score may be eliminated to assure the best representative scores are used to calculate a replicate mean by averaging the remaining scores. This mean score is then compared to the untreated control score and a percent disease control is calculated.

[2] = 0.1 ppm in agar, 19 - 20 °C, 4 to 5 days
[3] = 1 ppm in agar, 19 - 20 °C, 4 to 5 days
[4] = 10 ppm in agar, 19 - 20 °C, 4 to 5 days
[5] = rate 0.02mg/pot, wheat, soil infested with Ggt, after four weeks
[6] = rate 0.1 (head prints ppm, head line ends mg/pot), wheat, soil infested with Ggt, after four weeks, N = no control
[7] = rate 0.5 (head prints ppm, head line ends mg/pot), wheat, soil infested with Ggt, after four weeks, N = no control

Row | IC50 [1] [µg/mL] | Structure (SMILES) | inhibition at 0.1 ppm [1, 2] [%] | inhibition at 1 ppm [1, 3] [%] | inhibition at 10 ppm [1, 4] [%] | pest or weed control at 0.02 mg/pot (Ggt; [5]) [%] | pest or weed control at 0.1 mg/pot (Ggt; [6]) [%] | pest or weed control at 0.5 mg/pot (Ggt; [7]) [%] | inhibition at 0.1 ppm [1] [%] | inhibition at 1 ppm [1] [%] | inhibition at 10 ppm [1] [%] | pest or weed control at 0.1 mg/pot (Ggt; soil) [%] | pest or weed control at 0.5 mg/pot (Ggt; soil) [%] | pest or weed control at 0.02 mg/pot (Ggt; soil) [%]
1 | – | C=CCNC(=O)c1c(OC2(C)CCCCC2)ccc2ccccc12 [Example 39, N-allyl 2-[(1-methyl-1-cyclohexyl)oxy]-1-naphthamide] | 57 | 96 | 96 | 0 | 11 | 28 | – | – | – | – | – | –
2 | – | CCN(CC)C(=O)c1c([Si](C)(C)CI)ccc2ccccc12 [Example 2, N,N-Diethyl-2-[(iodomethyl)dimethylsilyl]-1-naphthalenecarboxamide] | – | – | – | – | – | – | 15 | 46 | 100 | < 0 | < 0 | –
3 | – | CCC(C)(C)Nc1ccc2ccccc2c1C(=O)NCCBr [Example 19, N-(2-bromoethyl) 2-[(1,1-dimethylpropyl)amino]-1-naphthamide] | – | – | – | – | – | – | 68 | 93 | 98 | 0 | 22 | 0
4 | – | CCN(SC)C(=O)c1c([Si](C)(C)C)sc2ccccc12 [Example 16, N-Ethyl-N-(methylthio)-2-(trimethylsilyl)benzo[b]-thiophene-3-carboxamide] | – | – | – | – | – | – | 100 | 100 | 100 | 87 | 93 | –
5 | – | CCNC(=O)c1c([Si](C)(C)C)sc2ccccc12 [Example 8, N-Ethyl-2-(trimethylsilyl)-benzo[b]thiophene-3-carboxamide] | – | – | – | – | – | – | 97 | 93 | 100 | 43 | 71 | –
6 | – | CCCN(CCC)C(=O)c1c(OC(CC)(CC)CC)ccc2ccccc12 [Example 35, N,N-dipropyl 2-[(1,1-diethylpropyl)oxy]-1-naphthamide] | 0 | 19 | 95 | 0 | 0 | 1 | – | – | – | – | – | –
7 | – | CCNC(=O)c1c([Si](C)(C)C)cc(F)c2ccccc12 [Example 1, N-Ethyl-4-fluoro-2-(trimethylsilyl)-1-naphthalenecarboxamide] | – | – | – | – | – | – | 0 | 79 | 79 | 18 | – | –
8 | 0.000814 (≈ 0.00261 µM) | CCCNC(=O)c1c(NC(C)(CC)CC)ccc2ccccc12 [Example 24, N-propyl 2-[(1,1-diethylethyl)amino]-1-naphthamide] | 95 | 95 | 100 | 32 | 38 | 76 | – | – | – | – | – | –
9 | – | CCNC(=O)c1c([Si](C)(C)C)ccc2sccc12 [Example 41, N-ethyl 5-trimethylsilyl benzothiophene-4-carboxamide] | – | – | – | – | – | – | 98 | 98 | 100 | 99 | 100 | 75
10 | 0.0422 (≈ 0.135 µM) | CCNC(=O)c1c(OC(CC)(CC)CC)ccc2ccccc12 [Example 32, N-ethyl 2-[(1,1-diethylpropyl)oxy]-1-naphthamide] | 87 | 97 | 97 | 15 | 35 | 58 | – | – | – | – | – | –
11 | 0.0085 (≈ 0.0299 µM) | CCCNC(=O)c1c(NC(C)(C)C)ccc2ccccc12 [Example 21, N-propyl 2-[(1,1-dimethylethyl)amino]-1-naphthamide] | 95 | 97 | 97 | 35 | 60 | 78 | – | – | – | – | – | –
12 | – | CCNC(=O)c1c(OC2(C)CCCC2)ccc2ccccc12 [Example 36, N-ethyl 2-[(1-methyl-1-cyclopentyl)oxy]-1-naphthamide] | 76 | 98 | 100 | 0 | 0 | 60 | – | – | – | – | – | –
13 | – | CCNC(=O)c1c([Si](C)(C)C)ccc2ccccc12 [Example 4, N-Ethyl-2-(trimethylsilyl)-1-naphthalenecarboxamide] | – | – | – | – | – | – | 100 | 100 | 100 | 85 | 99 | –
14 | – | C=CCNC(=O)c1c([Si](C)(C)C)sc2ccccc12 [Example 13, N-2-Propenyl-2-(trimethylsilyl)benzo[b]thiophene-3-carboxamide] | – | – | – | – | – | – | 100 | 100 | 100 | 84 | 94 | –
15 | 0.0716 (≈ 0.265 µM) | CCNC(=O)c1c(NC(C)(C)C)ccc2ccccc12 [Example 20, N-ethyl 2-[(1,1-dimethylethyl)amino]-1-naphthamide] | 80 | 98 | 100 | 5 | 24 | 61 | – | – | – | – | – | –
